From ChEMBL document CHEMBL4622833, “Bifunctional small molecule-oligonucleotide hybrid as microRNA inhibitor” (Bioorg Med Chem, 2020)
Calls of active or inactive are those of the source. The calls are words filed in the database; no cut-off is given here. Numbered stars: 1 amine (or outer) side, 2 acyl side, 3 side chain; on linkers, the order of the positions; unused ones are H or OH. Square brackets hold non-standard residues; d marks the D form. Peptide text beside a SMILES is read from it. * marks the point of attachment. X6 = O=C1Cc2ccc(OCc3cn(N([C@@H](CS)C(=O)[*:2])[*:1])nn3)cc2C(=O)N1O; X3 = O=C1Cc2ccc(OCc3cn(N(CC(=O)[*:2])[*:1])nn3)cc2C(=O)N1O; X4 = C[C@@H](O)[C@@H](C(=O)[*:2])N(n1cc(CN[*:3])nn1)[*:1]; X7 = O=C([C@H](CS)N(n1cc(CCCC(=O)[*:3])nn1)[*:1])[*:2]; X1 = O=C([C@H](CS)N(n1cc(CN[*:3])nn1)[*:1])[*:2]; X5 = C[C@@H](C(=O)[*:2])N(n1cc(CN[*:3])nn1)[*:1]; X8 = O=C(NCCOCCOCCN*)c1ccc2c(c1)C(=O)N(O)C2=O; X2 = O=C1c2ccc(C(=O)*)cc2C(=O)N1O

How the values were obtained:
Type in all cases: nucleic-acid assay
[1] = target: microRNA 21; experiment: Inhibition of Dicer mediated [32P] pre-miRNA-21 (unknown origin) maturation assessed as cleavage of pre-miRNA after 2.5 hrs by denaturating polyacrylamide gel electrophoresis
[2] = tested on: microRNA 21; experiment: Inhibition of Dicer mediated [32P] pre-miRNA-21 (unknown origin) maturation assessed as cleavage of pre-miRNA at 50 uM after 2.5 hrs by denaturating polyacrylamide gel electrophoresis
[3] = tested on: microRNA 21; experiment: Inhibition of Dicer mediated [32P] pre-miRNA-21 (unknown origin) maturation assessed as cleavage of pre-miRNA at 1 to 100 uM after 2.5 hrs by denaturating polyacrylamide gel electrophoresis
[4] = tested on: microRNA 21; experiment: Binding affinity to [32P]pre-miRNA-21(unknown origin) assessed as reduction in mobility by electrophoretic mobility shift assay
[5] = tested on: microRNA 21; experiment: Inhibition of Dicer mediated [32P] pre-miRNA-21 (unknown origin) maturation assessed as cleavage of pre-miRNA at 10 uM after 2.5 hrs by denaturating polyacrylamide gel electrophoresis
[6] = tested on: microRNA 21; experiment: Inhibition of Dicer mediated [32P] pre-miRNA-21 (unknown origin) maturation assessed as cleavage of pre-miRNA at 1000 uM after 2.5 hrs by denaturating polyacrylamide gel electrophoresis
[7] = tested on: Pre-miRNA-29b; experiment: Inhibition of Dicer mediated [32P] pre-miRNA-29b-1 (unknown origin) maturation assessed as cleavage of pre-miRNA at 1 mM after 2.5 hrs by denaturating polyacrylamide gel electrophoresis

| Structure (SMILES) | IC50 [1] [µM] | inhibition [2] | also measured |
| --- | --- | --- | --- |
| C[C@H](NC(=O)[C@H](CS)NC(=O)[C@H](C)NC(=O)[C@H](C)NC(=O)[C@H](CS)NC(=O)[C@@H](NC(=O)[C@@H](NC(=O)[C@H](C)NC(=O)CNC(=O)[C@H](C)Nn1cc(CNC(=O)c2ccc3c(c2)C(=O)N(O)C3=O)nn1)[C@@H](C)O)[C@@H](C)O)C(=O)O (H-[X5](X2)GATTCAACA-OH) |  | Active |  |
| C[C@H](NC(=O)[C@H](CS)NC(=O)[C@H](C)NC(=O)[C@H](C)NC(=O)[C@H](CS)NC(=O)[C@@H](NC(=O)[C@@H](NC(=O)[C@H](C)NC(=O)CNC(=O)[C@H](C)NC(=O)CNn1cc(COc2ccc3c(c2)C(=O)N(O)C(=O)C3)nn1)[C@@H](C)O)[C@@H](C)O)C(=O)O (H-[X3]AGATTCAACA-OH) | 0.5 |  | inhibition [1]: Dose-dependent effect |
| C[C@H](NC(=O)[C@H](CS)NC(=O)[C@H](C)NC(=O)[C@H](C)NC(=O)[C@H](CS)NC(=O)[C@@H](NC(=O)[C@@H](NC(=O)[C@H](C)NC(=O)CNC(=O)[C@H](C)NC(=O)CNC(=O)[C@@H](NC(=O)[C@H](C)NC(=O)[C@H](CS)Nn1cc(CCCC(=O)NCCOCCOCCNC(=O)c2ccc3c(c2)C(=O)N(O)C3=O)nn1)[C@@H](C)O)[C@@H](C)O)[C@@H](C)O)C(=O)O (H-[X7](X8)ATGAGATTCAACA-OH) |  |  | inhibition [3]: inactive |
| C#CCNC(=O)c1ccc2c(c1)C(=O)N(O)C2=O |  |  | inhibition [6]: inactive; inhibition [7]: inactive |

Continued, in another order:

| IC50 [1] [µM] | inhibition [2] | Structure (SMILES) | also measured |
| --- | --- | --- | --- |
| 3.3 |  | C[C@H](NC(=O)[C@H](CS)NC(=O)[C@H](C)NC(=O)[C@H](C)NC(=O)[C@H](CS)NC(=O)[C@@H](NC(=O)[C@@H](NC(=O)[C@H](C)NC(=O)CNC(=O)[C@H](C)NC(=O)CNC(=O)[C@@H](NC(=O)[C@H](C)NC(=O)[C@H](CS)Nn1cc(COc2ccc3c(c2)C(=O)N(O)C(=O)C3)nn1)[C@@H](C)O)[C@@H](C)O)[C@@H](C)O)C(=O)O (H-[X6]ATGAGATTCAACA-OH) |  |
|  | Active | C[C@H](NC(=O)[C@H](CS)NC(=O)[C@H](C)NC(=O)[C@H](C)NC(=O)[C@H](CS)NC(=O)[C@@H](NC(=O)[C@@H](NC(=O)[C@H](C)NC(=O)CNC(=O)[C@H](C)NC(=O)CNC(=O)[C@@H](Nn1cc(CNC(=O)c2ccc3c(c2)C(=O)N(O)C3=O)nn1)[C@@H](C)O)[C@@H](C)O)[C@@H](C)O)C(=O)O (H-[X4](X2)GAGATTCAACA-OH) |  |
| 4.3 | Active | C[C@H](NC(=O)[C@H](CS)NC(=O)[C@H](C)NC(=O)[C@H](C)NC(=O)[C@H](CS)NC(=O)[C@@H](NC(=O)[C@@H](NC(=O)[C@H](C)NC(=O)CNC(=O)[C@H](C)NC(=O)CNC(=O)[C@@H](NC(=O)[C@H](C)NC(=O)[C@H](CS)Nn1cc(CNC(=O)c2ccc3c(c2)C(=O)N(O)C3=O)nn1)[C@@H](C)O)[C@@H](C)O)[C@@H](C)O)C(=O)O (H-[X1](X2)ATGAGATTCAACA-OH) | Activity [4]: Active; inhibition [5]: Active |
